Experimental data: patent US11077106B2, “Cancer treatment” (Janssen Pharmaceutica NV, priority 2017, dated 2021)
Where two headings read alike, the source gives them in different places.

Tests used:
[1] = system: metastatic or surgically unresectable urothelial cancer harboring select FGFR genetic alterations
Procedure: Assessments of tumor responses as reported herein were performed according to Response Evaluation Criteria in Solid Tumors (RECIST) version 1.1.
Included patients were adults with measurable urothelial cancer per Response Evaluation Criteria in Solid Tumors version 1.1.
Patients were required to have at least 1 FGFR2/FGFR3 mutation or fusion per central lab testing of RNA from formalin-fixed, paraffin-embedded tumor samples, using a custom assay.
Patients had progressed during or following at least 1 line of prior systemic chemotherapy or less than 12 months of neoadjuvant or adjuvant chemotherapy.
The primary end point of this ongoing study is Objective Response Rate to the selected regimen (Regimen 3).
Secondary end points include progression-free survival (PFS), duration of response (DoR), Overall Survival, safety, predictive biomarker evaluation, and pharmacokinetics.
Patients were assessed for efficacy using radiographic imaging performed within 30 days of screening, once every 6 weeks for the first 3 months, once every 12 weeks for the next 9 months, then once every 4 to 6 months until disease progression. Tumor responses were assessed by investigators according to RECIST version 1.1 (Eisenhauer E A et al., Eur J Cancer, 2009, 45(2), 228-247).

[2] = system: subjects with metastatic or surgically unresectable urothelial cancer
Procedure: The study comprises a Screening Phase (molecular screening at any time prior to first dose and study screening within 30 days of first dose), a treatment phase, and a post-treatment follow-up phase. The treatment phase comprises the period from first dose until the end-of-treatment visit. The follow-up phase will extend until the subject has died, withdraws consent, is lost to follow-up, or the end of study, whichever comes first. Study treatment is administered on 28-day cycles. Prior to interim analysis 1, there were 2 treatment regimens.
Safety was assessed continuously by the investigator and based on medical review of AE reports and the results of vital sign measurements, physical examinations, clinical laboratory tests, ECOG performance status, and other safety evaluations.

[3] = Regimen 1, 10 mg intermittent dose (n = 33)
[4] = Regimen 2, 6 mg continuous dose (n = 78)
[5] = Regimen 3, 8 mg continuous dose (n = 59)
[6] = Any grade, Regimen 2, 6 mg continuous dose (n = 78)
[7] = Any grade, Regimen 3, 8 mg continuous dose (n = 96)
[8] = Grade ≥ 3, Regimen 1, 10 mg intermittent dose (n = 33)
[9] = Grade ≥ 3, Regimen 2, 6 mg continuous dose (n = 78)
[10] = Grade ≥ 3, Regimen 3, 8 mg continuous dose (n = 96)

COc1cc(OC)cc(N(CCNC(C)C)c2ccc3ncc(-c4cnn(C)c4)nc3c2)c1 [erdafitinib, N-(3,5-dimethoxyphenyl)-N′-(1-methylethyl)-N-[3-(1-methyl-1H-pyrazol-4-y)quinoxalin-6-yl]ethane-1,2-diamine]
patients with reduction in the sum of target lesion diameters ([1]; 8 mg/d continuous erdafitinib (Regimen 3), 44/59 patients): 75%
Complete response [1, 3]: 2 (6) n (%)
Disease control rate, confirmed, n (%) [1, 3]: 24 (73) n (%)
ORR, confirmed, n (%) [1, 3]: 8 (24) n (%)
Partial response [1, 3]: 6 (18) n (%)
Progression-free survival, median, months [1, 3]: 4.0 months
Stable disease [1, 3]: 16 (49) n (%)
Complete response [1, 4]: 2 (3) n (%)
Disease control rate, confirmed, n (%) [1, 4]: 57 (73) n (%)
ORR, confirmed, n (%) [1, 4]: 27 (35) n (%)
Partial response [1, 4]: 25 (32) n (%)
Progression-free survival, median, months [1, 4]: 5.1 months
Stable disease [1, 4]: 30 (39) n (%)
Complete response [1, 5]: 3 (5) n (%)
Disease control rate, confirmed, n (%) [1, 5]: 48 (81) n (%)
ORR, confirmed, n (%) [1, 5]: 25 (42) n (%)
Partial response [1, 5]: 22 (37) n (%)
Progression-free survival, median, months [1, 5]: 5.6 months
Stable disease [1, 5]: 23 (39) n (%)
Median Progression Free Survival ([1]; across all dose regimens): 5.1 months
confirmed Objective Response Rate ([1]; across all dose regimens (n = 170), 95% CI, 28%-43%): 35%
confirmed disease control rate ([1]; among all patients (n = 170)): 76%
response to treatment in relation to number of prior lines of treatment ([1]; chemo-naïve, one prior line, or two or more prior lines of chemotherapy): independent of the number of prior lines treatment
median time to response ([1]; subset of 59 patients on Regimen 3): 1.41 months
TRAE: Alopecia [2, 6]: 7 (9) n (%)
TRAE: Asthenia [2, 6]: 12 (15) n (%)
TRAE: Decreased appetite [2, 6]: 18 (23) n (%)
TRAE: Diarrhea [2, 6]: 34 (44) n (%)
TRAE: Dry eye [2, 6]: 2 (3) n (%)
TRAE: Dry mouth [2, 6]: 31 (40) n (%)
TRAE: Dry skin [2, 6]: 17 (22) n (%)
TRAE: Dysgeusia [2, 6]: 10 (13) n (%)
TRAE: Fatigue [2, 6]: 14 (18) n (%)
TRAE: Hyperphosphatemia [2, 6]: 48 (62) n (%)
TRAE: Lacrimation increased [2, 6]: 11 (14) n (%)
TRAE: Nail dystrophy [2, 6]: 7 (9) n (%)
TRAE: Onycholysis [2, 6]: 13 (17) n (%)
TRAE: Palmar-plantar erythrodysaesthesia syndrome [2, 6]: 12 (15) n (%)
TRAE: Paronychia [2, 6]: 11 (14) n (%)
TRAE: Stomatitis [2, 6]: 32 (41) n (%)
TRAE: Vision blurred [2, 6]: 5 (6) n (%)
TRAE: Alopecia [2, 7]: 22 (23) n (%)
TRAE: Asthenia [2, 7]: 13 (14) n (%)
TRAE: Decreased appetite [2, 7]: 23 (24) n (%)
TRAE: Diarrhea [2, 7]: 40 (42) n (%)
TRAE: Dry eye [2, 7]: 17 (18) n (%)
TRAE: Dry mouth [2, 7]: 40 (42) n (%)
TRAE: Dry skin [2, 7]: 26 (27) n (%)
TRAE: Dysgeusia [2, 7]: 32 (33) n (%)
TRAE: Fatigue [2, 7]: 19 (20) n (%)
TRAE: Hyperphosphatemia [2, 7]: 66 (69) n (%)
TRAE: Lacrimation increased [2, 7]: 8 (8) n (%)
TRAE: Nail dystrophy [2, 7]: 12 (13) n (%)
TRAE: Onycholysis [2, 7]: 10 (10) n (%)
TRAE: Palmar-plantar erythrodysaesthesia syndrome [2, 7]: 15 (16) n (%)
TRAE: Paronychia [2, 7]: 14 (15) n (%)
TRAE: Stomatitis [2, 7]: 45 (47) n (%)
TRAE: Vision blurred [2, 7]: 15 (16) n (%)
TRAE: Alopecia [2, 8]: 0 n (%)
TRAE: Asthenia [2, 8]: 2 (6) n (%)
TRAE: Decreased appetite [2, 8]: 0 n (%)
TRAE: Diarrhea [2, 8]: 1 (3) n (%)
TRAE: Dry eye [2, 8]: 0 n (%)
TRAE: Dry mouth [2, 8]: 0 n (%)
TRAE: Dry skin [2, 8]: 0 n (%)
TRAE: Dysgeusia [2, 8]: 0 n (%)
TRAE: Fatigue [2, 8]: 0 n (%)
TRAE: Hyperphosphatemia [2, 8]: 0 n (%)
TRAE: Lacrimation increased [2, 8]: 0 n (%)
TRAE: Nail dystrophy [2, 8]: 0 n (%)
TRAE: Onycholysis [2, 8]: 0 n (%)
TRAE: Palmar-plantar erythrodysaesthesia syndrome [2, 8]: 0 n (%)
TRAE: Paronychia [2, 8]: 0 n (%)
TRAE: Stomatitis [2, 8]: 1 (3) n (%)
TRAE: Vision blurred [2, 8]: 0 n (%)
TRAE: Alopecia [2, 9]: 0 n (%)
TRAE: Asthenia [2, 9]: 4 (5) n (%)
TRAE: Decreased appetite [2, 9]: 2 (3) n (%)
TRAE: Diarrhea [2, 9]: 0 n (%)
TRAE: Dry eye [2, 9]: 1 (1) n (%)
TRAE: Dry mouth [2, 9]: 2 (3) n (%)
TRAE: Dry skin [2, 9]: 0 n (%)
TRAE: Dysgeusia [2, 9]: 0 n (%)
TRAE: Fatigue [2, 9]: 1 (1) n (%)
TRAE: Hyperphosphatemia [2, 9]: 0 n (%)
TRAE: Lacrimation increased [2, 9]: 0 n (%)
TRAE: Nail dystrophy [2, 9]: 0 n (%)
TRAE: Onycholysis [2, 9]: 5 (6) n (%)
TRAE: Palmar-plantar erythrodysaesthesia syndrome [2, 9]: 0 n (%)
TRAE: Paronychia [2, 9]: 0 n (%)
TRAE: Stomatitis [2, 9]: 7 (9) n (%)
TRAE: Vision blurred [2, 9]: 1 (1) n (%)
TRAE: Alopecia [2, 10]: 0 n (%)
TRAE: Asthenia [2, 10]: 3 (3) n (%)
TRAE: Decreased appetite [2, 10]: 0 n (%)
TRAE: Diarrhea [2, 10]: 3 (3) n (%)
TRAE: Dry eye [2, 10]: 0 n (%)
TRAE: Dry mouth [2, 10]: 0 n (%)
TRAE: Dry skin [2, 10]: 0 n (%)
TRAE: Dysgeusia [2, 10]: 1 (1) n (%)
TRAE: Fatigue [2, 10]: 1 (1) n (%)
TRAE: Hyperphosphatemia [2, 10]: 2 (2) n (%)
TRAE: Lacrimation increased [2, 10]: 0 n (%)
TRAE: Nail dystrophy [2, 10]: 3 (3) n (%)
TRAE: Onycholysis [2, 10]: 1 (1) n (%)
TRAE: Palmar-plantar erythrodysaesthesia syndrome [2, 10]: 4 (4) n (%)
TRAE: Paronychia [2, 10]: 3 (3) n (%)
TRAE: Stomatitis [2, 10]: 8 (8) n (%)
TRAE: Vision blurred [2, 10]: 0 n (%)
patients discontinued as the result of TRAEs ([2]; across all dose regimens (22 patients)): 11%
treatment-related deaths ([2]; across all dose regimens, safety population N=207): no treatment-related deaths
patients reporting grade 4 TRAEs ([2]; across all dose regimens, safety population N=207 (n=1)): 0.5%
patients reporting grade 3 TRAEs ([2]; across all dose regimens, safety population N=207 (n=69)): 33%
patients reporting TRAEs ([2]; across all dose regimens, safety population N=207 (n=195)): 94%
patients reporting retinopathy ([2]; across all dose regimens, grade 2 [n=1] and grade 3 [n=1]): 2 patients
